Values quoted from earlier work as cited in US20240216406A1, “METHODS AND COMPOSITIONS FOR SUPPORTING HUMAN HEALTH DURING SPACE TRAVEL” (Intrinsic Medicine, Inc., priority 2021, published 2024).
Read-outs that look alike come from different tables or passages of the source.

Legend:
[1] = test system: mouse models of rheumatoid arthritis; settings: administered orally; mouse rheumatoid arthritis models with LPS challenge
[2] = test system: PDL1, COX2, CCL2 (MCP1), CCL5
[3] = test system: murine and human derived macrophages; settings: in vitro
p65 = settings: murine rheumatoid arthritis model
E. Coli = settings: in the presence of the HMO
local gut inflammation = settings: models of necrotizing enterocolitis and other inflammatory bowel diseases

In the case of sialyllactose, the “clinical assessments of disease” value [1] is given as “benefit in clinical assessments of disease”.
In the case of `CC(=O)N[C@H]1C([C@H](O)[C@H](O)CO)O[C@@](O[C@@H]2C(O)[C@H](O[C@@H]3C(CO)O[C@@H](O)C(O)[C@H]3O)OC(CO)[C@@H]2O)(C(=O)O)C[C@H]1O` (some centres unmarked) [3′SL, 3′-sialyllactose], the “PDL1, COX2 and select chemokines such as CCL2 (MCP1) and CCL5” value [2] is given as “reduce other key target proteins”, the “IL-1β, IL-2, IL-4, IL-6, IL-12, IFN γ or TNF-α” value (“IL-1β … IFN γ or TNF-α” for short) [3] is given as “reductions” and the “IL-1β … IFN γ or TNF-α” value ([3]; listed as 3′-SL) is given as “more significant reductions”. For the same compound, the “phosphorylation of p65 (NF-kB signaling pathway)” value (p65) was “inhibited phosphorylation of p65”.
For `CC(=O)N[C@H]1C([C@H](O)[C@H](O)CO)O[C@@](OCC2O[C@@H](O[C@@H]3C(CO)O[C@@H](O)C(O)[C@H]3O)C(O)[C@@H](O)[C@H]2O)(C(=O)O)C[C@H]1O` (some centres unmarked) [6′SL, 6′-sialyllactose], the “IL-1β … IFN γ or TNF-α” value [3] is given as “reductions” and the “E. Coli adhesion to Caco-2 cells” value (E. Coli) is given as “reduction of E. Coli adhesion”.
For `CC1O[C@@H](OC2[C@H](O[C@@H]3C(CO)OC(O)C(O)C3O)OC(CO)[C@H](O)[C@@H]2O)C(O)[C@@H](O)[C@@H]1O` (some centres unmarked) [2′FL, 2′-fucosyllactose], the “gut epithelial barrier function” value (gut epithelial barrier) is listed as “positive effects on gut epithelial barrier function”, the “TNFα and IL-8” value (TNFα and IL-8) is listed as “reduction in TNFα and IL-8” and the “E. Coli adhesion to Caco-2 cells” value (E. Coli) is listed as “reduction of E. Coli adhesion”. The local gut inflammation (local gut inflammation) was “reduction of local gut inflammation”.
